Data reported in PMC11259170, “Small-molecule probe for IBD risk variant GPR65 I231L alters cytokine signaling networks through positive allosteric modulation” (Science Advances, 2024).
Read-outs that look alike come from different tables or passages of the source.

How the values were obtained:
hGPR65 = biological target: T1, hGPR65 (Homo sapiens, UniProt Q8IYL9); assay: cAMP detection in HeLa expression cell line, hGPR65; type: cell-based; conditions: for Emax: HeLa, read-out: hGPR Max Activity %; for Emax / hGPR Max Activity: relative to 100uM forskolin (100%) and DMSO (0%); for EC50: SAR cAMP assay, read-out: hGPR EC50; for hGPR Max Activity: third pair
T1 construct: expressed in transfected cells; host or cells: HeLa (ATCC CCL-2), lentiviral transduction, pLX317
In short: (§1)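 Lentivirally transduced HeLa, V5-tagged GPCR, puromycin 3 μg/ml. 1500 cells/well, stimulation buffer pH 7.2, compound (10 mM DMSO stock), 30 min RT. Lyse, detection reagents 1 h dark RT. TR-FRET cAMP kit, ex 337, em 620/665.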

[1] = system: GFP-expressing HeLa cells; assay: cAMP detection in HeLa expression cell line, GFP control; type: cell-based, human; conditions: for EC50: SAR cAMP assay; for GFP Max Activity: third pair
In short: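 TR-FRET cAMP read-out (Lance Ultra; ex 337 nm, em 620 and 665 nm) after 1 h detection in the dark, following a 30 min RT stimulation of 1500 cells per well in pH 7.2 stimulation buffer with compound supplied as 10 mM DMSO stock. Cells: lentivirally transduced HeLa lines carrying V5-tagged GPCR or GFP, kept under 3 μg/ml puromycin.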

mGPR65 = biological target: T2, mGPR65 (Mus musculus, UniProt Q61038); assay: cAMP detection in HeLa expression cell line, mGPR65; type: cell-based; conditions: for EC50: SAR cAMP assay, read-out: mGPR EC50; for mGPR Max Activity: third pair
T2 construct: expressed in transfected cells; host or cells: HeLa (ATCC CCL-2), lentiviral transduction, pLX317
In short: as §1

[2] = Comment on solubility in SAR table; type: physicochemical
Description: Supplement sciadv.adn2339_data_s1_to_s4.zip/sciadv.adn2339_data_s2.xlsx, sheet "SAR cAMP Assay"

[3] = second EC50/Max pair of hGPR columns
[4] = third EC50/Max pair of hGPR columns
[5] = Homo sapiens, HeLa, third EC50/Max pair of GFP control columns
[6] = relative to 100uM forskolin (100%) and DMSO (0%)
[7] = third EC50/Max pair of mGPR columns

T2 sequence (Q61038 whole entry): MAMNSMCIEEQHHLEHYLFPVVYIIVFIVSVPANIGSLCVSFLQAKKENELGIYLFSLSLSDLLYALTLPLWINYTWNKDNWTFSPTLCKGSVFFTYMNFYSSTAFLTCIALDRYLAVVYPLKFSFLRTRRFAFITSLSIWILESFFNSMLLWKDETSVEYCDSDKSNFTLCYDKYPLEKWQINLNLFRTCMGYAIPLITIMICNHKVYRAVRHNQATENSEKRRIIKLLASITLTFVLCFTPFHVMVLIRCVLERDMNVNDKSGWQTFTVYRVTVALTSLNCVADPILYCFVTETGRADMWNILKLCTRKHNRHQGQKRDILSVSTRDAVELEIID
T1 sequence (Q8IYL9 whole entry): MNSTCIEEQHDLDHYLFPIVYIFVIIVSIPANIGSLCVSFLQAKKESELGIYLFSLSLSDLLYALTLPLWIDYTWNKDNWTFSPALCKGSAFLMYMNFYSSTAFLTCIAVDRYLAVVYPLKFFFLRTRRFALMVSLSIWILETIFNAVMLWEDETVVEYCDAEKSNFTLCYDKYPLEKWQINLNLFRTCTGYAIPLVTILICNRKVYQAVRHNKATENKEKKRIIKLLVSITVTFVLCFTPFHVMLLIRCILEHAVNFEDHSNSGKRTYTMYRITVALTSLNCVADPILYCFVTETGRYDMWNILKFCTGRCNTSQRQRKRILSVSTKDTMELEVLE

Structure (SMILES) | Emax (hGPR65; first pair) [%] | Emax (hGPR65; second pair) [%] | EC50 (hGPR65; first EC50/Max pair of hGPR columns) [nM] | EC50 (hGPR65; [3]) [nM] | EC50 (hGPR65; [4]) [nM] | hGPR Max Activity (hGPR65) [%] | EC50 ([1]; Homo sapiens, HeLa, second EC50/Max pair of GFP control columns) [nM] | EC50 [1, 5] [nM] | Emax ([1]; Homo sapiens, HeLa, second pair, relative to 100uM forskolin (100%) and DMSO (0%), read-out: GFP Max Activity %) [%] | GFP Max Activity [1, 6] [%] | EC50 (mGPR65; [7]) [nM] | mGPR Max Activity (mGPR65; [6]) [%] | Comments (solubility) [2] | Emax (mGPR65; HeLa, second pair, relative to 100uM forskolin (100%) and DMSO (0%), read-out: mGPR Max Activity %) [%] | EC50 (mGPR65; second EC50/Max pair of mGPR columns) [nM]
Cc1ccc(NC(=O)c2cnn3c(O)cc(-c4ccc(-c5cccc(C(C)C)c5)cc4)nc23)cc1 [BRD4922] | 47.3 | 51.9 | 3820 | 1420 | 688 | 55.72 | 2440 | 6470 | 0.205 | 1.632 | 900 | 35.02 | Poor solubility. |  | 
Cc1ccc(NC(=O)c2cnn3c(O)cc(-c4cccc(-c5ccccc5)c4)nc23)cc1 [BRD8101] |  | 7.53 |  | 9640 | 13600 | 28.01 |  | 3200 |  | 2.825 | 89.7 | 82.45 | Poor solubility. | 73.1 | 566
